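96-well plates; 48 h exposure; 5 concentrations. Endpoints by linear interpolation between flanking doses. Not reached: highest tested concentration assigned. Definition used: TGI = concentration required for complete inhibition of growth.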
Tests used:
Assay in all cases: growth of human tumour cells (NCI), 48 h
[1] = system: 786-0 renal
[2] = system: A549 NSCLC
[3] = system: ACHN renal
[4] = system: CAKI-1 renal
[5] = system: CCRF-CEM leukemia
[6] = system: COLO 205 colon
[7] = system: DLD-1 colon
[8] = system: EKVX NSCLC
[9] = system: HCT-116 colon
[10] = system: HL-60(TB) leukemia
[11] = system: HOP-18 NSCLC
[12] = system: HOP-92 NSCLC
[13] = system: HT29 colon
[14] = system: IGROV1 ovarian
[15] = system: K-562 leukemia
[16] = system: KM12 colon
[17] = system: KM20L2 colon
[18] = system: LOX IMVI melanoma
[19] = system: LXFL 529 NSCLC
[20] = system: M14 melanoma
[21] = system: MOLT-4 leukemia
[22] = system: NCI-H226 lung
[23] = system: NCI-H23 lung
[24] = system: NCI-H460 lung
[25] = system: NCI-H522 lung
[26] = system: OVCAR-3 ovarian
[27] = system: OVCAR-4 ovarian
[28] = system: OVCAR-5 ovarian
[29] = system: OVCAR-8 ovarian
[30] = system: RPMI-8226 leukemia
[31] = system: RXF 393 renal
[32] = system: RXF-631 renal
[33] = system: SF-268 CNS
[34] = system: SF-295 CNS
[35] = system: SF-539 CNS
[36] = system: SK-MEL-2 melanoma
[37] = system: SK-MEL-28 melanoma
[38] = system: SK-MEL-5 melanoma
[39] = system: SK-OV-3 ovarian
[40] = system: SN12C renal
[41] = system: SNB-19 CNS
[42] = system: SNB-75 CNS
[43] = system: SNB-78 CNS
[44] = system: SR leukemia
[45] = system: SW-620 colon
[46] = system: TK-10 renal
[47] = system: UACC-257 melanoma
[48] = system: UACC-62 melanoma
[49] = system: UO-31 renal
[50] = system: XF 498 CNS
[51] = system: A498 renal
[52] = system: DMS 114 small cell lung
[53] = system: DMS 273 small cell lung
[54] = system: HCC-2998 colon
[55] = system: HCT-15 colon
[56] = system: HOP-62 NSCLC
[57] = system: M19-MEL melanoma
[58] = system: MALME-3M melanoma
[59] = system: U251 CNS

C[C@H](C(=O)C12CC3CC(CC(C3)C1)C2)[C@H](O)c1ccccc1
TGI [1]: 55.7 µM
TGI [2]: > 100 µM
TGI [3]: > 100 µM
TGI [4]: 91.2 µM
TGI [5]: > 100 µM
TGI [6]: 28.3 µM
TGI [7]: > 100 µM
TGI [8]: > 100 µM
TGI [9]: 32.3 µM
TGI [10]: 58.1 µM
TGI [11]: > 100 µM
TGI [12]: 45.8 µM
TGI [13]: 34.1 µM
TGI [14]: > 100 µM
TGI [15]: > 100 µM
TGI [16]: 70.7 µM
TGI [17]: 43.9 µM
TGI [18]: 32 µM
TGI [19]: > 100 µM
TGI [20]: > 100 µM
TGI [21]: > 100 µM
TGI [22]: 36.5 µM
TGI [23]: > 100 µM
TGI [24]: > 100 µM
TGI [25]: 57.8 µM
TGI [26]: 63.3 µM
TGI [27]: > 100 µM
TGI [28]: 56.2 µM
TGI [29]: > 100 µM
TGI [30]: > 100 µM
TGI [31]: 48.3 µM
TGI [32]: > 100 µM
TGI [33]: 30.2 µM
TGI [34]: > 100 µM
TGI [35]: 96.5 µM
TGI [36]: 38.8 µM
TGI [37]: 31.4 µM
TGI [38]: 32 µM
TGI [39]: > 100 µM
TGI [40]: 36.1 µM
TGI [41]: > 100 µM
TGI [42]: 75.9 µM
TGI [43]: > 100 µM
TGI [44]: 78.4 µM
TGI [45]: > 100 µM
TGI [46]: > 100 µM
TGI [47]: 78.4 µM
TGI [48]: > 100 µM
TGI [49]: 73.5 µM
TGI [50]: 67.7 µM

O=C(CCc1nnc2s/c(=C\c3ccccc3[N+](=O)[O-])c(=O)n12)Nc1cc(Cl)c(Cl)cc1Cl
TGI [1]: 31.3 µM
TGI [51]: 53.6 µM
TGI [2]: > 100 µM
TGI [3]: > 100 µM
TGI [5]: 82.6 µM
TGI [6]: > 100 µM
TGI [7]: 66.6 µM
TGI [52]: > 100 µM
TGI [53]: > 100 µM
TGI [8]: > 100 µM
TGI [54]: > 100 µM
TGI [9]: 31.4 µM
TGI [55]: > 100 µM
TGI [11]: 94.4 µM
TGI [56]: 64.1 µM
TGI [12]: 51.2 µM
TGI [13]: > 100 µM
TGI [14]: > 100 µM
TGI [15]: 72 µM
TGI [16]: 43.4 µM
TGI [17]: > 100 µM
TGI [18]: 46.9 µM
TGI [19]: 53.8 µM
TGI [20]: > 100 µM
TGI [57]: > 100 µM
TGI [58]: > 100 µM
TGI [21]: 71.6 µM
TGI [22]: 40.6 µM
TGI [23]: > 100 µM
TGI [24]: 75.7 µM
TGI [25]: > 100 µM
TGI [26]: 35.8 µM
TGI [27]: 34.6 µM
TGI [28]: > 100 µM
TGI [29]: 89.9 µM
TGI [31]: 57.6 µM
TGI [32]: > 100 µM
TGI [33]: 78.1 µM
TGI [34]: 49.5 µM
TGI [35]: 46 µM
TGI [36]: > 100 µM
TGI [37]: > 100 µM
TGI [38]: > 100 µM
TGI [39]: > 100 µM
TGI [40]: 63.8 µM
TGI [41]: 74.3 µM
TGI [42]: 55.8 µM
TGI [43]: > 100 µM
TGI [46]: 87.9 µM
TGI [59]: 30.8 µM
TGI [47]: > 100 µM
TGI [48]: > 100 µM
TGI [49]: 91.4 µM
TGI [50]: 58 µM

O=C(CC1(O)C(=O)Nc2c(Cl)cc(Cl)cc21)c1ccc(Br)cc1 (configuration not stated)
TGI [1]: 26.4 µM
TGI [51]: > 66 µM
TGI [2]: 44.2 µM
TGI [3]: 28.8 µM
TGI [4]: 33 µM
TGI [5]: > 55 µM
TGI [6]: > 56.1 µM
TGI [7]: 18.9 µM
TGI [52]: > 53.8 µM
TGI [53]: 28.8 µM
TGI [8]: 29.1 µM
TGI [54]: > 56.1 µM
TGI [9]: 34.7 µM
TGI [55]: > 56.3 µM
TGI [10]: 18.6 µM
TGI [11]: 30.4 µM
TGI [56]: 35.7 µM
TGI [12]: 29.7 µM
TGI [13]: > 57.9 µM
TGI [14]: 35.3 µM
TGI [15]: > 72.8 µM
TGI [16]: 30.6 µM
TGI [17]: 32.9 µM
TGI [18]: > 50.2 µM
TGI [19]: > 52.4 µM
TGI [20]: 31.8 µM
TGI [57]: > 20 µM
TGI [58]: > 56.1 µM
TGI [21]: > 63.5 µM
TGI [22]: 29.5 µM
TGI [23]: 29.3 µM
TGI [24]: > 56.3 µM
TGI [25]: 32.4 µM
TGI [26]: 29.8 µM
TGI [27]: 25.6 µM
TGI [28]: 31.4 µM
TGI [29]: > 52.2 µM
TGI [30]: 50.6 µM
TGI [31]: 31.1 µM
TGI [32]: 25.4 µM
TGI [33]: 34.4 µM
TGI [34]: > 55.4 µM
TGI [35]: 31.2 µM
TGI [36]: > 57.8 µM
TGI [37]: 35.1 µM
TGI [38]: 31.3 µM
TGI [39]: 64 µM
TGI [40]: > 50.4 µM
TGI [41]: 35.5 µM
TGI [42]: 39.5 µM
TGI [43]: 47 µM
TGI [44]: 62.1 µM
TGI [45]: > 53 µM
TGI [46]: 32.1 µM
TGI [59]: 26.9 µM
TGI [47]: > 51.3 µM
TGI [48]: 23.2 µM
TGI [49]: 17.4 µM
